Assay results reported in patent US20230151034A1 (COCRYSTAL PHARMA, INC., priority 2020, published 2023).
Where two headings read alike, the source gives them in different places.

Molecular target: SARS2 protease (Severe acute respiratory syndrome coronavirus 2, UniProt P0DTD1)
Assay: SARS-CoV-2 protease inhibition assay (SARS2 FRET protease assay)
Format: biochemical
Experimental: Viral protease assays: The antiviral activities of inhibitors were determined by FRET (Fluorescence Resonance Energy Transfer) assay. Purified viral protease was incubated with the protease substrate peptide (Edans-DFHLQ/GP-Dabcyl) and inhibitor, and IC50 values were subsequently determined by the fluorescence signals.
The SARS2 FRET protease assay was performed in 20 mM HEPES-Na pH 7, 120 mM NaCl, 0.4 mM EDTA, 0.01% Triton, 5% glycerol, and 4 mM DTT. A self-quenching peptide substrate 5-FAM-TSA VLQ SGF RKK (5TAMRA)-NH2 was custom synthesized by Anaspec. Compounds were diluted in 3-fold serial dilutions to final concentrations of 20 μM to 1.0 nM. SARS2 protease was added to a final concentration of 25 nM, depending on the enzyme activity level, and the peptide substrate was added to a final concentration of 1.3 μM. The assay was incubated 30 minutes at 30° C. and read in a Perkin Elmer Envision with excitation at 473 nm and emission measurement at 519 nm.

[1] = Table E, SARS-CoV-2 protease inhibition, read-out: IC50

Row | SMILES | IC50 [1] | IC50
1 | CN(CCc1ccccc1)C(=O)CC[C@@H](CO)NC(=O)[C@H](CC1CCCCC1)NC(=O)OCc1cccc(Cl)c1 [Compound A26, 3-chlorobenzyl ((S)-3-cyclohexyl-1-(((S)-1-hydroxy-5-(methyl(phenethyl)amino)-5-oxopentan-2-yl)amino)-1-oxopropan-2-yl)carbamate] | 14.7 µM | –
2 | CCCCCCCC1CC/C=C/CC(C(=O)NC)C[C@@H](C(=O)N(C)OC)NC(=O)[C@H](CC(C)C)NC(=O)O1 (stereo partly drawn) [Compound B64, (4S,7S,E)-15-heptyl-4-isobutyl-N^7-methoxy-N^7,N^9-dimethyl-2,5-dioxo-1-oxa-3,6-diazacyclopentadec-11-ene-7,9-dicarboxamide] | > 200 µM | –
3 | CCCCCCCC1CC/C=C\CC(C(=O)NC)C[C@@H](CO)NC(=O)[C@H](CC(C)C)NC1=O (stereo partly drawn) [Compound B65, (2S,5S,Z)-13-heptyl-5-(hydroxymethyl)-2-isobutyl-N-methyl-3,14-dioxo-1,4-diazacyclotetradec-9-ene-7-carboxamide] | > 200 µM | –
4 | CCOP(=O)(OCC)C(O)[C@H](CCC(=O)N(C)CCc1ccccc1Cl)NC(=O)[C@H](CC1CCCCC1)NC(=O)OCc1cccc(Cl)c1 (stereo partly drawn) [Compound A47, 3-Chlorobenzyl ((2S)-1-(((2S)-5-((2-chlorophenethyl)(methyl)amino)-1-(diethoxyphosphoryl)-1-hydroxy-5-oxopentan-2-yl)amino)-3-cyclohexyl-1-oxopropan-2-yl)carbamate] | > 200 µM | –
5 | CCCCCCC1CCC/C=C\CC(C(=O)N(C)C)CC(C(=O)N(C)OC)NC(=O)C(CC(C)C)NC(=O)C1 (stereo in doubt) [Compound B14, (2S,5S,Z)-14-hexyl-2-isobutyl-N5-methoxy-N^5,N^7,N^7-trimethyl-3,16-dioxo-1,4-diazacyclohexadec-9-ene-5,7-dicarboxamide] | > 200 µM | –
6 | CCCCCCCC1CCCC/C=C/CC(C(=O)N(C)C)CC(C=O)NC(=O)[C@H](CC(C)C)NC1=O (stereo in doubt) [Compound B7, (2S,5S,E)-5-formyl-15-heptyl-2-isobutyl-N,N-dimethyl-3,16-dioxo-1,4-diazacyclohexadec-9-ene-7-carboxamide] | > 200 µM | –
7 | CCOP(=O)(OCC)C(O)[C@H](CC(C)C(=O)N(C)CCc1ccccc1)NC(=O)[C@H](CC1CCCCC1)NC(=O)OCc1cccc(Cl)c1 (stereo partly drawn) [Compound A104, 3-Chlorobenzyl ((2S)-3-cyclohexyl-1-(((2S)-1-(diethoxyphosphoryl)-1-hydroxy-4-methyl-5-(methyl (phenethyl)amino)-5-oxopentan-2-yl)amino)-1-oxopropan-2-yl)carbamate] | > 200 µM | –
8 | CCO[N+]([O-])(OCC)[C@H](O)[C@H]1CC2(CCCCCCC(Cc3ccccc3)C(=O)N[C@@H](CC(C)C)C(=O)N1)CCNC2=O (stereo partly drawn) [Compound B41] | > 200 µM | –
9 | CCCCCCCC1CCCC/C=C/CC(C(=O)NC)C[C@@H](CO)NC(=O)[C@H](CC(C)C)NC1=O (stereo partly drawn) [Compound B66, (2S,5S,E)-15-heptyl-5-(hydroxymethyl)-2-isobutyl-N-methyl-3,16-dioxo-1,4-diazacyclohexadec-9-ene-7-carboxamide] | > 200 µM | –
10 | CCOC(=O)NCCN(C)C(=O)CC[C@H](NC(=O)[C@H](CC1CCCCC1)NC(=O)OCc1cccc(Cl)c1)C(=O)N(C)OC (stereo in doubt) [Compound A32, 3-Chlorobenzyl ((12S,15S)-16-cyclohexyl-12-(methoxy(methyl)carbamoyl)-8-methyl-4,9,14-trioxo-3-oxa-5,8,13-triazahexadecan-15-yl)carbamate] | > 200 µM | –
11 | CCNC(=O)NCCN(C)C(=O)CC[C@@H](CO)NC(=O)[C@H](CC1CCCCC1)NC(=O)OCc1cccc(Cl)c1 [Compound A100, 3-Chlorobenzyl ((12S,15S)-16-cyclohexyl-12-(hydroxymethyl)-8-methyl-4,9,14-trioxo-3,5,8,13-tetraazahexadecan-15-yl)carbamate] | > 200 µM | –
12 | CON(C)C(=O)[C@@H]1CC(C(=O)N(C)C)C/C=C/CCC(Cc2ccccc2)OC(=O)NC(CC(C)C)C(=O)N1 (stereo in doubt) [Compound B31, (4S,7S)-15-Benzyl-4-isobutyl-N7-methoxy-N7,N9,N9-trimethyl-2,5-dioxo-1-oxa-3,6-diazacyclopentadec-11-ene-7,9-dicarboxamide] | > 200 µM | –
13 | CCCCCCCC1CC/C=C/CC(C(=O)NC)C[C@@H](C(=O)N(C)OC)NC(=O)C(CC(C)C)NC(=O)O1 (single isomer, unassigned) [Compound B36] | > 200 µM | –
14 | CCOP(=O)(OCC)C(O)[C@H](CCC(=O)N(C)CC(C)c1ccccc1)NC(=O)[C@H](CC1CCCCC1)NC(=O)OCc1cccc(Cl)c1 (stereo partly drawn) [Compound A102, 3-Chlorobenzyl ((2S)-3-cyclohexyl-1-(((2S)-1-(diethoxyphosphoryl)-1-hydroxy-5-(methyl(2-phenylpropyl)amino)-5-oxopentan-2-yl)amino)-1-oxopropan-2-yl)carbamate] | > 200 µM | –
15 | CCCCCCCC1CC/C=C\CC(C(=O)N(C)C)CC(C(=O)N(C)OC)NC(=O)[C@H](CC(C)C)NC1=O (stereo in doubt) [Compound B11, (2S,5S,Z)-13-heptyl-2-isobutyl-N^5-methoxy-N^5,N^7,N^7-trimethyl-3,14-dioxo-1,4-diazacyclotetradec-9-ene-5,7-dicarboxamide] | > 200 µM | –
16 | CCOC(=O)NCCN(C)C(=O)CC[C@H](NC(=O)[C@H](CC1CCCCC1)NC(=O)OCc1cccc(Cl)c1)C(O)P(=O)(OCC)OCC (stereo partly drawn) [Compound A31, 3-Chlorobenzyl ((12S,15S)-16-cyclohexyl-12-((diethoxyphosphoryl)(hydroxy)methyl)-8-methyl-4,9,14-trioxo-3-oxa-5,8,13-triazahexadecan-15-yl)carbamate] | 46 µM | –
17 | CCOP(=O)(OCC)C(O)[C@H](CCC(=O)N(C)CCc1cccc(Cl)c1)NC(=O)[C@H](CC1CCCCC1)NC(=O)OCc1cccc(Cl)c1 (stereo partly drawn) [Compound A34, 3-Chlorobenzyl ((2S)-1-(((2S)-5-((3-chlorophenethyl)(methyl)amino)-1-(diethoxyphosphoryl)-1-hydroxy-5-oxopentan-2-yl)amino)-3-cyclohexyl-1-oxopropan-2-yl)carbamate] | > 200 µM | –
18 | CCCCCCCC1CCC/C=C/CC2(CCNC2=O)C[C@@H]([C@H](O)P(=O)(OCC)OCC)NC(=O)[C@H](CC(C)C)NC1=O (stereo partly drawn) [Compound B22, Diethyl ((1R)-((7S,10S,E)-13-heptyl-10-isobutyl-1,9,12-trioxo-2,8,11-triazaspiro[4.14]nonadec-17-en-7-yl)(hydroxy)methyl)phosphonate] | – | > 200 µM
19 | CC(C)C[C@@H]1NC(=O)OC(Cc2ccccc2)CCCCCC(C(=O)N(C)C)CC(C=O)NC1=O (stereo in doubt) [Compound B44, (4S,7S)-15-benzyl-7-formyl-4-isobutyl-N,N-dimethyl-2,5-dioxo-1-oxa-3,6-diazacyclopentadecane-9-carboxamide] | 185 µM | –
20 | CON(C)C(=O)[C@H](CCC(=O)N(C)CCc1ccc(Cl)cc1)NC(=O)[C@H](CC1CCCCC1)NC(=O)OCc1cccc(Cl)c1 (stereo in doubt) [Compound A41, 3-Chlorobenzyl ((S)-1-(((S)-5-((4-chlorophenethyl)(methyl)amino)-1-(methoxy(methyl)amino)-1,5-dioxopentan-2-yl)amino)-3-cyclohexyl-1-oxopropan-2-yl)carbamate] | 30 µM | –
21 | CCCCCCCC1CCCCCCCC(C(=O)N(C)C)CC(C=O)NC(=O)[C@H](CC(C)C)NC1=O (stereo in doubt) [Compound B17, (2S,5S)-5-formyl-15-heptyl-2-isobutyl-N,N-dimethyl-3,16-dioxo-1,4-diazacyclohexadecane-7-carboxamide] | > 200 µM | –
22 | CCOP(=O)(OCC)C(O)[C@H](CCC(=O)N1CCCCc2ccccc21)NC(=O)[C@H](CC1CCCCC1)NC(=O)OCc1cccc(Cl)c1 (stereo partly drawn) [Compound A55, 3-Chlorobenzyl ((2S)-3-cyclohexyl-1-(((2S)-1-(diethoxyphosphoryl)-1-hydroxy-5-oxo-5-(2,3,4,5-tetrahydro-1H-benzo[b]azepin-1-yl)pentan-2-yl)amino)-1-oxopropan-2-yl)carbamate] | > 200 µM | –
23 | CCOP(=O)(OCC)C(O)[C@H](CCC(=O)N1CCCC(c2ccccc2)C1)NC(=O)[C@H](CC1CCCCC1)NC(=O)OCc1cccc(Cl)c1 (stereo partly drawn) [Compound A106, 3-Chlorobenzyl ((2S)-3-cyclohexyl-1-(((2S)-1-(diethoxyphosphoryl)-1-hydroxy-5-oxo-5-(3-phenylpiperidin-1-yl)pentan-2-yl)amino)-1-oxopropan-2-yl)carbamate] | > 200 µM | –
24 | CCCCCCCC1CC/C=C/CC(C(=O)NC)C[C@@H](C(=O)N(C)OC)NC(=O)C(CC(C)C)NC(=O)O1 (single isomer, unassigned) [Compound B32] | > 200 µM | –
25 | CCNC(=O)OCCN(C)C(=O)CC[C@@H](CO)NC(=O)[C@H](CC1CCCCC1)NC(=O)OCc1cccc(Cl)c1 [Compound A101, 3-Chlorobenzyl ((12S,15S)-16-cyclohexyl-12-(hydroxymethyl)-8-methyl-4,9,14-trioxo-5-oxa-3,8,13-triazahexadecan-15-yl)carbamate] | > 200 µM | –
26 | CON(C)C(=O)[C@H](CCC(=O)N(C)CCc1cccc(Cl)c1)NC(=O)[C@H](CC1CCCCC1)NC(=O)OCc1cccc(Cl)c1 [Compound A23] | > 200 µM | –
27 | CCOP(=O)(OCC)C(O)[C@@H]1CC(C(=O)N(C)C)CCCCCC(Cc2ccccc2)OC(=O)N[C@@H](CC(C)C)C(=O)N1 (stereo partly drawn) [Compound B45, Diethyl (((4S,7S)-15-benzyl-9-(dimethylcarbamoyl)-4-isobutyl-2,5-dioxo-1-oxa-3,6-diazacyclopentadecan-7-yl)(hydroxy)methyl)phosphonate] | > 200 µM | –
